According to ChEMBL document CHEMBL1142840, “4-Phenylcoumarins as HIV transcription inhibitors” (Bioorg Med Chem Lett, 2005):

Legend:
[1] = test system: HeLa; assay: Anti-HIV activity (at 50 uM) against human HeLa cells through a HeLa-Tet-ON assay; U= unspecific; assay type: functional, cell-based
[2] = test system: HeLa; assay: Anti-HIV activity (at 50 uM) against human HeLa-Tat-Luc cells transfected with HIV-1 LTR activated by Tat protein; assay type: functional
[3] = test system: MT2; assay: Toxicity of compound against human MT-2 cell line at the concentration of 50 uM; assay type: functional
[4] = Anti-HIV activity (at 50 uM) against Jurkat-derived 5.1 cell line stably transfected with HIV-LTR activated by TNF alpha; assay type: functional
[5] = biological target: Human immunodeficiency virus type 1 reverse transcriptase (Human immunodeficiency virus 1, UniProt Q72547); assay: Inhibitory concentration against recombinant human immunodeficiency virus 1 reverse transcriptase
[6] = Anti-HIV activity (at 25 uM) against Jurkat-derived 5.1 cell line stably transfected with HIV-LTR activated by TNF alpha; assay type: functional
[7] = test system: HeLa; assay: Anti-HIV activity (at 25 uM) against human HeLa-Tat-Luc cells transfected with HIV-1 LTR activated by Tat protein; assay type: functional
[8] = test system: HeLa; assay: Anti-HIV activity (at 50 uM) against human HeLa cells through a HeLa-Tet-ON assay; U= specific; assay type: functional, cell-based
[9] = test system: HeLa; assay: Anti-HIV activity (at 50 uM) against human HeLa cells through a HeLa-Tet-ON assay; S= specific; assay type: functional, cell-based

Row | SMILES | inhibition [1] | inhibition at 50 µM [2] [%] | Cell death [3] [%] | inhibition at 50 µM [4] [%] | IC50 [5] [µM] | inhibition at 25 µM [6] [%] | inhibition at 25 µM [7] [%] | inhibition [8] | Inhibition [6] [%] | inhibition [9]
1 | CC(C)C(=O)c1c2c(c3oc(=O)cc(-c4ccccc4)c3c1O)C[C@@H](C(C)(C)O)O2 [MESUOL CYCLO F] | Unspecific | 59.5 | 79.5 | 59.4 |  |  |  |  |  | 
2 | CC1CN(C2CC(N=[N+]=[N-])[C@@H](CO)C2)C(=O)NC1=O (stereo partly drawn) |  |  | >100 |  | 0.01 |  |  |  |  | 
3 | CC(C)CC(=O)c1c2c(c3oc(=O)cc(-c4ccccc4)c3c1O)C[C@@H](C(C)(C)O)O2 [CYCLOMAMMEISIN] | Unspecific | 22 | 34.1 | 86.3 |  | 66.9 |  |  |  | 
4 | COc1c(C(=O)CC(C)C)c(O)c(CC=C(C)C)c2oc(=O)cc(-c3ccccc3)c12 |  | 13.5 | 4.8 | 43.6 | 22.2 |  |  |  |  | 
5 | CC(C)=CCc1c(O)c(C(=O)C(C)C)c(O)c2c(-c3ccccc3)cc(=O)oc12 [MESUOL] | Unspecific | 71.3 | 22.5 | 77.9 | 2.5 | 67.1 | 11.5 | Specific | 71 | 
6 | CC(C)=CCc1c(O)c(C(=O)C(C)C)c2oc(=O)cc(-c3ccccc3)c2c1O [ISOMESUOL] |  | 34.3 | 11.5 | 67.1 | 31.9 | 67 | 36.7 |  |  | Specific
7 | CC(C)=CCc1c(O)c(C(O)CC(C)C)c(O)c2c(-c3ccccc3)cc(=O)oc12 (stereo not drawn) | Unspecific | 47.6 | 8 | 60 |  |  |  |  |  | 
8 | CC(C)=CCc1c(O)cc(O)c2c(-c3ccccc3)cc(=O)oc12 |  | 15.4 | 34.4 | 84.5 | 11.2 | 33.4 |  |  |  | 
9 | CC(C)C(=O)c1c2c(c3oc(=O)cc(-c4ccccc4)c3c1O)C=CC(C)(C)O2 [MESUAGIN] |  | 0 | 4.5 | 20.2 | 32.1 | 10.8 | 0 |  |  | 
10 | CCC(C)C(=O)c1c(O)c(CC=C(C)C)c2oc(=O)cc(-c3ccccc3)c2c1O (stereo not drawn) | Unspecific | 86.7 | 28.8 | 85.2 |  |  |  |  |  | 
11 | CC(C)CC(=O)c1c(O)cc(O)c2c(-c3ccccc3)cc(=O)oc12 [ISODISPAR B] |  | 69.4 | 17.2 | 85.6 | 6.9 | 81 | 42 |  |  | Specific
12 | CC(C)=CCc1c(O)c(C(=O)CC(C)C)c(O)c2c(-c3ccccc3)cc(=O)oc12 [MAMMEISIN] | Unspecific | 53.1 | 16.6 | 58.8 |  |  |  |  |  | 
13 | CC(C)=C(O)Cc1c(O)c(C(=O)CC(C)C)c(O)c2c(-c3ccccc3)cc(=O)oc12 |  | 70.4 | 18.5 | 53.1 | 0.5 | 55.4 | 43.6 |  |  | Specific
14 | CC(=O)Oc1c(C(=O)CC(C)C)c(OC(C)=O)c2c(-c3ccccc3)cc(=O)oc2c1CC=C(C)C [MAMMEISIN DIACETATE] | Unspecific | 50.4 | 15.7 | 81.1 |  |  |  |  |  | 
15 | CC(C)CC(=O)c1c2c(c3oc(=O)cc(-c4ccccc4)c3c1O)C=CC(C)(C)O2 [MAMMEIGIN] |  | 3 | 4.7 | 15.7 | 124 | 5.9 | 2 |  |  | 
